# Source: PubChem BioAssay (NCI)
#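 48-hour exposure; five concentrations; linearly interpolated endpoints. Abbreviation: GI50, concentration required for 50% inhibition of growth. Definition used: TGI = concentration required for complete inhibition of growth.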
# Test system: SNB-75 CNS
# Experiment: NCI-60 cell line screen, 48 h
SMILES,GI50 [µM],TGI [µM]
NCCCn1c2c(c3ccccc3c1=O)C(=O)c1ccccc1-2,0.539,3.71
O=C1c2ccccc2C(=O)c2c(NCCN=Cc3ccccc3O)cccc21,2.33,7.6
Oc1ccc(/C=C/c2cc(O)cc3c2C(c2cc(O)cc(O)c2)C(c2ccc(O)c(O)c2)O3)cc1 (stereo unspecified),,> 100
COc1ccc(/C=C/c2cnccn2)cc1OC,,> 10
CCc1nc(Cl)c(Cl)c(Cl)n1,,> 100
O=[N+]([O-])c1ccc(Sc2c3ccccc3nc3ccccc23)cn1,,> 63.4
COc1cc2c3c(n(CCCN(C)CCO)c(=O)c2cc1OC)-c1cc2c(cc1C3=O)OCO2,,> 58.5
C=CCn1c(SCC(=O)Nc2ccc(C(=O)/C=C/c3cc(OC)c(OC)c(OC)c3)cc2)nnc1-c1ccc(OC)cc1,0.311,9.19
CNC(C)[C@H]1CCC2C3CC=C4C(=O)[C@@H](NC(=O)C=C(C)C)CC[C@]4(C)C3CC[C@@]21C (stereo partly specified),2.26,10.4
Clc1nc(Cl)c2ncn(Cc3ccccc3Cn3cnc4c(Cl)nc(Cl)nc43)c2n1,3.9,16.4
C=C1C(O)C2C(=C(C)C13CC3)C(=O)C(C)(C)C2OC (stereo unspecified),> 100,> 100
CS(=O)(=O)CS(=O)(=O)OCCCl,,256
CC(C)(C)c1cc(C(=O)/C=C/c2ccc(C(=O)O)cc2)cc(C(C)(C)C)c1,,15
COc1ccc(-c2ccc(NNC(=O)c3ccc(F)cc3)nn2)cc1OC,26.9,> 100
C=C1C(=O)OC2C1CC(OC(C)=O)/C(C)=C/CCC1(C)OC21 (stereo unspecified),,> 100
c1ccc2c(c1)c1ccccc1c1ccccc21,> 100,> 100
NC(=O)CNc1ccc([As]=[As]c2ccc(NCC(N)=O)cc2)cc1 (stereo unspecified),1.73,9.13

# Test system: TK-10 renal
# Experiment: NCI-60 cell line screen, 48 h
SMILES,GI50 [µM],TGI [µM]
COc1ccc(-c2nn(-c3cccc(Cl)c3)cc2-c2nc(N)[nH]c(=O)c2C#N)cc1,13.5,53.9
COC(=O)C(=O)CC(=O)c1cccc(OC)c1,,> 100
COc1cc2c3c(n(CCCN(CCO)CCO)c(=O)c2cc1OC)-c1cc2c(cc1C3=O)OCO2,1.23,6.02
O=C(CCN1CCOCC1)Nc1cccc(-n2cc(-c3ccncc3)c(-c3ccc(Cl)c(O)c3)n2)c1,8.18,20.7
C=C(C)[C@@H]1CC[C@]2(C)[C@H](CC[C@@H]3[C@@H]([C@@](C)(O)CCC=C(C)C)CC[C@]32C)[C@@]1(C)CCC(=O)O,40.6,> 100
Cn1cc(S(=O)(=O)N2CCC3=Cc4c(cnn4-c4ccc(F)cc4)C[C@]3(C(=O)c3cc(C(F)(F)F)ccn3)C2)cn1,> 100,> 100
c1ccc(NCCSc2nc3ccccc3s2)cc1,,77.4
Oc1ccc(Oc2cnc3ccccc3n2)cc1,> 100,> 100
Cc1ccc2occ/c(=N\Nc3ccccc3)c2c1,,> 100
CC(=O)NC1CONC1=O (stereo unspecified),,> 100
Oc1ccc(N=Nc2nccs2)c(O)c1,14,59.3
COc1cc(/C=C/C(=O)Oc2ccccc2)ccc1C(=O)O/C=C/c1ccccc1,,> 100
COc1ccc2c(c1)C(C)Cc1c(ncnc1-n1cnc3ccccc31)N2C (stereo unspecified),0.793,37.1
CC(Cl)CN1c2ccccc2Sc2ccc(Cl)cc21 (stereo unspecified),,> 10
NCCCn1c2c(c3ccccc3c1=O)C(=O)c1ccccc1-2,0.425,4.19
O=C1c2ccccc2C(=O)c2c(NCCN=Cc3ccccc3O)cccc21,1.99,6.17
Oc1ccc(/C=C/c2cc(O)cc3c2C(c2cc(O)cc(O)c2)C(c2ccc(O)c(O)c2)O3)cc1 (stereo unspecified),,> 100
COc1ccc(/C=C/c2cnccn2)cc1OC,,> 10
CCc1nc(Cl)c(Cl)c(Cl)n1,,> 100
O=[N+]([O-])c1ccc(Sc2c3ccccc3nc3ccccc23)cn1,,28.6
COc1cc2c3c(n(CCCN(C)CCO)c(=O)c2cc1OC)-c1cc2c(cc1C3=O)OCO2,81.7,> 100
C=CCn1c(SCC(=O)Nc2ccc(C(=O)/C=C/c3cc(OC)c(OC)c(OC)c3)cc2)nnc1-c1ccc(OC)cc1,1.6,6.18
CNC(C)[C@H]1CCC2C3CC=C4C(=O)[C@@H](NC(=O)C=C(C)C)CC[C@]4(C)C3CC[C@@]21C (stereo partly specified),2.89,10.4
Clc1nc(Cl)c2ncn(Cc3ccccc3Cn3cnc4c(Cl)nc(Cl)nc43)c2n1,2.93,11
C=C1C(O)C2C(=C(C)C13CC3)C(=O)C(C)(C)C2OC (stereo unspecified),> 100,> 100
CS(=O)(=O)CS(=O)(=O)OCCCl,,1280
CC(C)(C)c1cc(C(=O)/C=C/c2ccc(C(=O)O)cc2)cc(C(C)(C)C)c1,,11.9
COc1ccc(-c2ccc(NNC(=O)c3ccc(F)cc3)nn2)cc1OC,> 100,> 100
c1ccc2c(c1)c1ccccc1c1ccccc21,> 100,> 100

# Test system: U251 CNS
# Experiment: NCI-60 cell line screen, 48 h
SMILES,GI50 [µM],TGI [µM]
COc1ccc(-c2nn(-c3cccc(Cl)c3)cc2-c2nc(N)[nH]c(=O)c2C#N)cc1,3.66,18.8
COC(=O)C(=O)CC(=O)c1cccc(OC)c1,,> 100
COc1cc2c3c(n(CCCN(CCO)CCO)c(=O)c2cc1OC)-c1cc2c(cc1C3=O)OCO2,< 0.01,0.628
O=C(CCN1CCOCC1)Nc1cccc(-n2cc(-c3ccncc3)c(-c3ccc(Cl)c(O)c3)n2)c1,3.32,12.8
C=C(C)[C@@H]1CC[C@]2(C)[C@H](CC[C@@H]3[C@@H]([C@@](C)(O)CCC=C(C)C)CC[C@]32C)[C@@]1(C)CCC(=O)O,16.6,31.8
Cn1cc(S(=O)(=O)N2CCC3=Cc4c(cnn4-c4ccc(F)cc4)C[C@]3(C(=O)c3cc(C(F)(F)F)ccn3)C2)cn1,> 100,> 100
c1ccc(NCCSc2nc3ccccc3s2)cc1,,> 100
Oc1ccc(Oc2cnc3ccccc3n2)cc1,> 100,> 100
Cc1ccc2occ/c(=N\Nc3ccccc3)c2c1,,> 100
CC(=O)NC1CONC1=O (stereo unspecified),,> 100
Oc1ccc(N=Nc2nccs2)c(O)c1,4.5,35.2
COc1cc(/C=C/C(=O)Oc2ccccc2)ccc1C(=O)O/C=C/c1ccccc1,,> 100
COc1ccc2c(c1)C(C)Cc1c(ncnc1-n1cnc3ccccc31)N2C (stereo unspecified),0.59,16.2
CC(Cl)CN1c2ccccc2Sc2ccc(Cl)cc21 (stereo unspecified),,> 10
NCCCn1c2c(c3ccccc3c1=O)C(=O)c1ccccc1-2,0.0888,1.42
O=C1c2ccccc2C(=O)c2c(NCCN=Cc3ccccc3O)cccc21,5.06,19.5

SMILES,GI50 [µM],TGI [µM]
Oc1ccc(/C=C/c2cc(O)cc3c2C(c2cc(O)cc(O)c2)C(c2ccc(O)c(O)c2)O3)cc1 (stereo unspecified),,> 100
COc1ccc(/C=C/c2cnccn2)cc1OC,,> 10
CCc1nc(Cl)c(Cl)c(Cl)n1,,> 100
O=[N+]([O-])c1ccc(Sc2c3ccccc3nc3ccccc23)cn1,,> 60.1
COc1cc2c3c(n(CCCN(C)CCO)c(=O)c2cc1OC)-c1cc2c(cc1C3=O)OCO2,0.814,> 100
C=CCn1c(SCC(=O)Nc2ccc(C(=O)/C=C/c3cc(OC)c(OC)c(OC)c3)cc2)nnc1-c1ccc(OC)cc1,0.289,0.939
CNC(C)[C@H]1CCC2C3CC=C4C(=O)[C@@H](NC(=O)C=C(C)C)CC[C@]4(C)C3CC[C@@]21C (stereo partly specified),2.19,11.8
Clc1nc(Cl)c2ncn(Cc3ccccc3Cn3cnc4c(Cl)nc(Cl)nc43)c2n1,2.05,4.63
C=C1C(O)C2C(=C(C)C13CC3)C(=O)C(C)(C)C2OC (stereo unspecified),> 100,> 100
CS(=O)(=O)CS(=O)(=O)OCCCl,,664
CC(C)(C)c1cc(C(=O)/C=C/c2ccc(C(=O)O)cc2)cc(C(C)(C)C)c1,,11.2
COc1ccc(-c2ccc(NNC(=O)c3ccc(F)cc3)nn2)cc1OC,> 100,> 100
C=C1C(=O)OC2C1CC(OC(C)=O)/C(C)=C/CCC1(C)OC21 (stereo unspecified),,> 100
c1ccc2c(c1)c1ccccc1c1ccccc21,> 100,> 100
NC(=O)CNc1ccc([As]=[As]c2ccc(NCC(N)=O)cc2)cc1 (stereo unspecified),1.57,23.2
